According to patent publication US20210395248A1, “INHIBITORS OF HUMAN IMMUNODEFICIENCY VIRUS REPLICATION” (ViiV HEALTHCARE UK (NO.5) LIMITED, priority 2018, published 2021):

How the values were obtained:
[1] = test system: recombinant NL4-3 virus (Renilla luciferase reporter) in MT-2 cells; test: HIV cell culture assay (antiviral activity, luciferase readout in infected MT-2 cells); format: cell-based; conditions: NL43
Procedure: HIV cell culture assay—MT-2 cells, 293T cells and the proviral DNA clone of NL4-3 virus were obtained from the NIH AIDS Research and Reference Reagent Program. MT-2 cells were propagated in RPMI 1640 media supplemented with 10% heat inactivated fetal bovine serum (FBS), […]. The 293T cells were propagated in DMEM media supplemented with 10% heat inactivated FBS, […]. A recombinant NL4-3 proviral clone, in which a section of the nef gene was replaced with the Renilla luciferase gene, was used to make the reference virus used in these studies. The recombinant virus was prepared through transfection of the recombinant NL4-3 proviral clone into 293T cells using Transit-293 Transfection Reagent from Mirus Bio LLC (Madison, Wis.). Supernatent was harvested after 2-3 days and the amount of virus present was titered in MT-2 cells using luciferase enzyme activity as a marker by measuring luciferase enzyme activity. Luciferase was quantitated using the EnduRen Live Cell Substrate from Promega (Madison, Wis.). Antiviral activities of compounds toward the recombinant virus were quantified by measuring luciferase activity in MT-2 cells infected for 4-5 days with the recombinant virus in the presence of serial dilutions of the compound.
The 50% effective concentration (EC50) was calculated by using the exponential form of the median effect equation where (Fa)=1/[1+(EC50/drug conc.)m] (Johnson V A, Byington RT. Infectivity Assay. In Techniques in HIV Research, ed. Aldovini A, Walker B D. 71-76. New York: Stockton Press. 1990). The 50% inhibitory concentration (EC50) was calculated by using the exponential form of the median effect equation where percent inhibition=1/[1+(EC50/drug concentration)m], where m is a parameter that reflects the slope of the concentration-response curve.

[2] = Compound cytotoxicity, XTT-based colorimetric assay; format: cell-based; conditions: human; uninfected MT2 cells, day 4, XTT; read-out: CC50
Procedure: Compound cytotoxicity and the corresponding CC50 values were determined using the same protocol as described in the antiviral assay except that uninfected cells were used. Cytotoxicity was assessed on day 4 in uninfected MT2 cells by using a XTT (2,3-bis [2-Methoxy-4-nitro-5-sulfophenyl]-2H-tetrazolium-5-carboxyanilide inner salt)-based colorimetric assay (Sigma-Aldrich, St Louis, Mo.).

Structure (SMILES) | EC50 [1] [nM] | CC50 at 4 days [2] [nM]
Cn1nc(NS(C)(=O)=O)c2c(Cl)ccc(-n3c([C@H](Cc4cc(F)cc(F)c4)NC(=O)Cn4nc(C(F)F)c5c4C(F)(F)[C@@H]4C[C@H]54)nc4nc(NCCC(C)(F)F)ccc4c3=O)c21 (atropisomer, axis not shown; (P)) [Example 25, N—((S)-1-((3P)-3-(4-chloro-1-methyl-3-(methylsulfonamido)-1H-indazol-7-yl)-7-((3,3-difluorobutyl)amino)-4-oxo-3,4-dihydropyrido[2,3-d]pyrimidin-2-yl)-2-(3,5-difluorophenyl)ethyl)-2-((3bS,4aR)-3-(difluoromethyl)-5,5-difluoro-3b,4,4a,5-tetrahydro-1H-cyclopropa[3,4]cyclopenta[1,2-c]pyrazol-1-yl)acetamide] | 0.037 | > 100
Cn1nc(NS(C)(=O)=O)c2c(Cl)ccc(-n3c([C@H](Cc4cc(F)cc(F)c4)NC(=O)Cn4nc(C(F)F)c5c4C(F)(F)[C@@H]4C[C@H]54)nc4nc(N5CC(C)(C)OC(C)(C)C5)ccc4c3=O)c21 (atropisomer, axis not shown; (P)) [Example 26, N—((S)-1-((3P)-3-(4-chloro-1-methyl-3-(methylsulfonamido)-1H-indazol-7-yl)-4-oxo-7-(2,2,6,6-tetramethylmorpholino)-3,4-dihydropyrido[2,3-d]pyrimidin-2-yl)-2-(3,5-difluorophenyl)ethyl)-2-((3bS,4aR)-3-(difluoromethyl)-5,5-difluoro-3b,4,4a,5-tetrahydro-1H-cyclopropa[3,4]cyclopenta[1,2-c]pyrazol-1-yl)acetamide] | 0.023 | > 100
Cn1nc(NS(C)(=O)=O)c2c(Cl)ccc(-n3c([C@H](Cc4cc(F)cc(F)c4)NC(=O)Cn4nc(C(F)F)c5c4C(F)(F)[C@@H]4C[C@H]54)nc4nc(N5CCOC(C)(C)C5)ccc4c3=O)c21 (atropisomer, axis not shown; (P)) [Example 29, N—((S)-1-((3P)-3-(4-chloro-1-methyl-3-(methylsulfonamido)-1H-indazol-7-yl)-7-(2,2-dimethylmorpholino)-4-oxo-3,4-dihydropyrido[2,3-d]pyrimidin-2-yl)-2-(3,5-difluorophenyl)ethyl)-2-((3bS,4aR)-3-(difluoromethyl)-5,5-difluoro-3b,4,4a,5-tetrahydro-1H-cyclopropa[3,4]cyclopenta[1,2-c]pyrazol-1-yl)acetamide] | 0.035 | > 100
CN(CCC(F)(F)F)c1ccc2c(=O)n(-c3ccc(Cl)c4c(NS(C)(=O)=O)nn(C)c34)c([C@H](Cc3cc(F)cc(F)c3)NC(=O)Cn3nc(C(F)F)c4c3C(F)(F)[C@@H]3C[C@H]43)nc2n1 (atropisomer, axis not shown; (P)) [Example 30, N—((S)-1-((3P)-3-(4-chloro-1-methyl-3-(methylsulfonamido)-1H-indazol-7-yl)-7-(methyl(3,3,3-trifluoropropyl)amino)-4-oxo-3,4-dihydropyrido[2,3-d]pyrimidin-2-yl)-2-(3,5-difluorophenyl)ethyl)-2-((3bS,4aR)-3-(difluoromethyl)-5,5-difluoro-3b,4,4a,5-tetrahydro-1H-cyclopropa[3,4]cyclopenta[1,2-c]pyrazol-1-yl)acetamide] | 0.032 | > 100
Cn1nc(NS(C)(=O)=O)c2c(Cl)ccc(-n3c([C@H](Cc4cc(F)cc(F)c4)NC(=O)Cn4nc(C(F)F)c5c4C(F)(F)[C@@H]4C[C@H]54)nc4nc(NCCCC(F)(F)F)ccc4c3=O)c21 (atropisomer, axis not shown; (P)) [Example 31, N—((S)-1-((3P)-3-(4-chloro-1-methyl-3-(methylsulfonamido)-1H-indazol-7-yl)-4-oxo-7-((4,4,4-trifluorobutyl)amino)-3,4-dihydropyrido[2,3-d]pyrimidin-2-yl)-2-(3,5-difluorophenyl)ethyl)-2-((3bS,4aR)-3-(difluoromethyl)-5,5-difluoro-3b,4,4a,5-tetrahydro-1H-cyclopropa[3,4]cyclopenta[1,2-c]pyrazol-1-yl)acetamide] | 0.11 | > 100
Cn1nc(NS(C)(=O)=O)c2c(Cl)ccc(-n3c([C@H](Cc4cc(F)cc(F)c4)NC(=O)Cn4nc(C(F)F)c5c4C(F)(F)[C@@H]4C[C@H]54)nc4nc(NCCC(F)(F)F)ccc4c3=O)c21 (atropisomer, axis not shown; (P)) [Example 32, N—((S)-1-((3P)-3-(4-chloro-1-methyl-3-(methylsulfonamido)-1H-indazol-7-yl)-4-oxo-7-((3,3,3-trifluoropropyl)amino)-3,4-dihydropyrido[2,3-d]pyrimidin-2-yl)-2-(3,5-difluorophenyl)ethyl)-2-((3bS,4aR)-3-(difluoromethyl)-5,5-difluoro-3b,4,4a,5-tetrahydro-1H-cyclopropa[3,4]cyclopenta[1,2-c]pyrazol-1-yl)acetamide] | 0.042 | > 100
Cn1nc(NS(C)(=O)=O)c2c(Cl)ccc(-n3c([C@H](Cc4cc(F)cc(F)c4)NC(=O)Cn4nc(C(F)F)c5c4C(F)(F)[C@@H]4C[C@H]54)nc4nc(NCCC(F)F)ccc4c3=O)c21 (atropisomer, axis not shown; (P)) [Example 34, N—((S)-1-((3P)-3-(4-chloro-1-methyl-3-(methylsulfonamido)-1H-indazol-7-yl)-7-((3,3-difluoropropyl)amino)-4-oxo-3,4-dihydropyrido[2,3-d]pyrimidin-2-yl)-2-(3,5-difluorophenyl)ethyl)-2-((3bS,4aR)-3-(difluoromethyl)-5,5-difluoro-3b,4,4a,5-tetrahydro-1H-cyclopropa[3,4]cyclopenta[1,2-c]pyrazol-1-yl)acetamide] | 0.055 | > 100
Cn1nc(NS(C)(=O)=O)c2c(Cl)ccc(-n3c([C@H](Cc4cc(F)cc(F)c4)NC(=O)Cn4nc(C(F)F)c5c4C(F)(F)[C@@H]4C[C@H]54)nc4nc(NCCCF)ccc4c3=O)c21 (atropisomer, axis not shown; (P)) [Example 35, N—((S)-1-((3P)-3-(4-chloro-1-methyl-3-(methylsulfonamido)-1H-indazol-7-yl)-7-((3-fluoropropyl)amino)-4-oxo-3,4-dihydropyrido[2,3-d]pyrimidin-2-yl)-2-(3,5-difluorophenyl)ethyl)-2-((3bS,4aR)-3-(difluoromethyl)-5,5-difluoro-3b,4,4a,5-tetrahydro-1H-cyclopropa[3,4]cyclopenta[1,2-c]pyrazol-1-yl)acetamide] | 0.11 | > 100
C[C@@H]1CN(c2ccc3c(=O)n(-c4ccc(Cl)c5c(NS(C)(=O)=O)nn(C)c45)c([C@H](Cc4cc(F)cc(F)c4)NC(=O)Cn4nc(C(F)F)c5c4C(F)(F)[C@@H]4C[C@H]54)nc3n2)C[C@H](C)O1 (atropisomer, axis not shown; (aR)) [Example 1, N—((S)-1-(3-(4-chloro-1-methyl-3-(methylsulfonamido)-1H-indazol-7-yl)-7-((2S,6R)-2,6-dimethylmorpholino)-4-oxo-3,4-dihydropyrido[2,3-d]pyrimidin-2-yl)-2-(3,5-difluorophenyl)ethyl)-2-((3bS,4aR)-3-(difluoromethyl)-5,5-difluoro-3b,4,4a,5-tetrahydro-1H-cyclopropa[3,4]cyclopenta[1,2-c]pyrazol-1-yl)acetamide] | 0.041 | > 500
